Experimental data reported in ChEMBL document CHEMBL3885881, “DrugMatrix”.

Species: Rattus norvegicus
Assay: DrugMatrix - Regimen: Daily Repeat
Format: toxicity, organism-based, Sprague-Dawley
Set-up: regimen Daily Repeat, gender Male, age 6-8 weeks
Details: in vivo, po, route oral GAVAGE, vehicle 100 % WATER
[1] = 1 mg/kg, 72 h, tissue Plasma, dose level Low, time 3 day
[2] = 1 mg/kg, 120 h, tissue Blood, dose level Low, time 5 day
[3] = 1 mg/kg, 120 h, tissue Plasma, dose level Low, time 5 day
[4] = 10 mg/kg, 72 h, tissue Blood, dose level High, time 3 day
[5] = 10 mg/kg, 72 h, tissue Plasma, dose level High, time 3 day
[6] = 10 mg/kg, 120 h, tissue Blood, dose level High, time 5 day
[7] = 10 mg/kg, 120 h, tissue Plasma, dose level High, time 5 day

THIMEROSAL
TOTAL BILIRUBIN [1]: 0.2 mg/dL | TOTAL PROTEIN [1]: 5.73 G/DL | ABSOLUTE BASOPHIL [2]: 0 CELLS/uL | ABSOLUTE EOSINOPHIL [2]: 50.33 CELLS/uL | ABSOLUTE MONOCYTE [2]: 268.67 CELLS/uL | ABSOLUTE SEGMENTED NEUTROPHIL [2]: 1091 CELLS/uL | BASOPHIL [2]: 0% | EOSINOPHIL [2]: 0.33% | ERYTHROCYTE COUNT [2]: 5.58 x10E6/uL | HEMATOCRIT [2]: 35.07% | LEUKOCYTE COUNT [2]: 11.73 x10E3/uL | LYMPHOCYTE [2]: 88% | MEAN CORPUSCULAR HEMOGLOBIN [2]: 25.23 pg | MEAN CORPUSCULAR HEMOGLOBIN CONCENTRATION [2]: 40.13 G/DL | NUCLEATED RED BLOOD CELLS [2]: 0 /100WBC | PLATELET COUNT [2]: 1316.33 x10E3/uL | ALANINE AMINOTRANSFERASE [3]: 43.33 u/L | ALKALINE PHOSPHATASE [3]: 369 u/L | ASPARTATE AMINOTRANSFERASE [3]: 83.33 u/L | BLOOD UREA NITROGEN [3]: 15.67 mg/dL | CARBON DIOXIDE [3]: 30.33 mmol/L | CHOLESTEROL [3]: 67.33 mg/dL | CREATINE PHOSPHOKINASE [3]: 227.33 u/L | CREATININE [3]: 0.2 mg/dL | GLUCOSE [3]: 177.33 mg/dL | LACTATE DEHYDROGENASE [3]: 246 u/L | LIPASE [3]: 10 u/L | PHOSPHORUS [3]: 11.2 mg/dL | POTASSIUM [3]: 6.65 MEQ/L | TOTAL BILIRUBIN [3]: 0.27 mg/dL | TOTAL PROTEIN [3]: 5.93 G/DL | URIC ACID [3]: 1.4 mg/dL | ABSOLUTE BASOPHIL [4]: 0 CELLS/uL | ABSOLUTE EOSINOPHIL [4]: 0 CELLS/uL | ABSOLUTE MONOCYTE [4]: 196.33 CELLS/uL | ABSOLUTE SEGMENTED NEUTROPHIL [4]: 1492 CELLS/uL | BASOPHIL [4]: 0% | EOSINOPHIL [4]: 0% | ERYTHROCYTE COUNT [4]: 5.18 x10E6/uL | HEMATOCRIT [4]: 33.3% | HEMOGLOBIN [4]: 13.3 G/DL | LEUKOCYTE COUNT [4]: 14.17 x10E3/uL | LYMPHOCYTE [4]: 88.67% | MEAN CORPUSCULAR HEMOGLOBIN [4]: 25.73 pg | MEAN CORPUSCULAR HEMOGLOBIN CONCENTRATION [4]: 39.93 G/DL | NEUTROPHIL [4]: 10% | NUCLEATED RED BLOOD CELLS [4]: 0.33 /100WBC | PLATELET COUNT [4]: 1209 x10E3/uL | ALANINE AMINOTRANSFERASE [5]: 54.33 u/L | ALBUMIN [5]: 3.7 G/DL | ALKALINE PHOSPHATASE [5]: 440.67 u/L | ASPARTATE AMINOTRANSFERASE [5]: 82.67 u/L | BLOOD UREA NITROGEN [5]: 15 mg/dL | CARBON DIOXIDE [5]: 30 mmol/L | CHOLESTEROL [5]: 107.67 mg/dL | CREATINE PHOSPHOKINASE [5]: 183.33 u/L | CREATININE [5]: 0.16 mg/dL | LACTATE DEHYDROGENASE [5]: 137 u/L | PHOSPHORUS [5]: 11 mg/dL | POTASSIUM [5]: 6.64 MEQ/L | TOTAL BILIRUBIN [5]: 0.2 mg/dL | TOTAL PROTEIN [5]: 5.57 G/DL | ABSOLUTE BASOPHIL [6]: 0 CELLS/uL | ABSOLUTE EOSINOPHIL [6]: 0 CELLS/uL | ABSOLUTE LYMPHOCYTE [6]: 10043.33 CELLS/uL | ABSOLUTE MONOCYTE [6]: 291.67 CELLS/uL | ABSOLUTE SEGMENTED NEUTROPHIL [6]: 1665 CELLS/uL | BASOPHIL [6]: 0% | EOSINOPHIL [6]: 0% | ERYTHROCYTE COUNT [6]: 6.38 x10E6/uL | HEMATOCRIT [6]: 39.67% | HEMOGLOBIN [6]: 15.6 G/DL | LEUKOCYTE COUNT [6]: 12 x10E3/uL | LYMPHOCYTE [6]: 84.67% | MEAN CORPUSCULAR HEMOGLOBIN [6]: 24.57 pg | NEUTROPHIL [6]: 13% | NUCLEATED RED BLOOD CELLS [6]: 0 /100WBC | PLATELET COUNT [6]: 1253 x10E3/uL | ALANINE AMINOTRANSFERASE [7]: 56.33 u/L | ALKALINE PHOSPHATASE [7]: 463.67 u/L | ASPARTATE AMINOTRANSFERASE [7]: 83.67 u/L | BLOOD UREA NITROGEN [7]: 15.67 mg/dL | CHOLESTEROL [7]: 116.33 mg/dL | CREATINE PHOSPHOKINASE [7]: 208.33 u/L | CREATININE [7]: 0.22 mg/dL | GLUCOSE [7]: 156 mg/dL | LACTATE DEHYDROGENASE [7]: 176.33 u/L | PHOSPHORUS [7]: 10.43 mg/dL | POTASSIUM [7]: 6.38 MEQ/L | TOTAL BILIRUBIN [7]: 0.1 mg/dL | TOTAL PROTEIN [7]: 6 G/DL | URIC ACID [7]: 1.63 mg/dL
